From patent US7550426B2, “Acetylated therapeutic procytotoxins” (GHC Research Development Corporation, priority 2005, dated 2009)

Legend:
[1] = test system: nucleated cells; settings: high concentrations; cited from earlier work
[2] = target: prostate specific membrane antigen (human) (UniProt Q04609)
[3] = test system: LNCaP tumor; assay: Plasma PSA levels in mouse model for human prostate cancer (LNCaP tumor), intraperitoneal treatment; format: in vivo; settings: nude mice with LNCaP tumor; 200 μg peptide per injection, intraperitoneally, twice per week; PSA measured after three, five and seven weeks
Procedure: LNCaP cells lot #3475262 (Catalog # CRL-1740) are received from ATCC, quickly thawed at 37° C. and placed in culture immediately. Cells are cultured in RPMI media (supplemented with 10% FBS, 50,000 units of Penicillin and 50,000 ug Streptomycin) and grown at 37° C. in the presence of 5% CO2. Cells are passed when approximately 80% confluent until there are enough cells to do the in vivo studies.
(§1) 20 nude mice are injected subcutaneously (right flank) with 0.5 ml of a 4 million cell/ml suspension (50% PBS 50% high concentration matrigel). Each mouse receives approximately 2 million cells. The mice are male, approximately 12 weeks of age and of the nude BalbC background.
(§2) 5 days following LNCaP tumor inoculation, mice are injected with an acetylated γ-glutamate-masked amoebapore, a non-acetylated γ-glutamate-masked amoebapore, and a control. Six control mice are injected with 200 μl of PBS and the remaining 14 mice are injected with 200 μl of a 1 mg/ml solution of either the acetylated or non-acetylated γ-glutamate-masked amoebapore peptide (i.e., 200 μg peptide per injection). Mice are injected intraperitoneally, twice per week. PSA levels are measured after three, five, and seven weeks of treatment. Lower PSA levels relative to control provide an objective indication that the procytotoxin is converted to its cytotoxic form and is able to lyse a target cell.

[4] = test system: LNCaP cells; assay: In vitro lysis of LNCaP cells measured by LDH release; format: cell-based, human; settings: concentration 160 μM
Procedure: Prior to tumor injection, in vitro studies are conducted to check the activity of the acetylated and non-acetylated procytotoxin, and to check the activity of the LNCaP cells for their ability to secrete PSA. Peptide activity is checked by a LDH Cytotoxicity Detection Kit (Roche).
Non-acetylated γ-glutamate-masked amoebapore (a modified cytotoxin comprising one or more γ-linked glutamate residues linked via a peptide bond to the epsilon amino group of at least one lysine, preferably the C-terminal-most lysine), and acetylated γ-glutamate-masked amoebapore are compared in vitro for their ability to lyse LNCaP cells, as measured by percent lactic acid dehydrogenase (LDH) release.

[5] = Mouse weight after 7 weeks of intraperitoneal injection in mouse model for prostate cancer; format: in vivo; settings: nude mice with LNCaP tumor; following 7 weeks of intraperitoneal injection; compared to control animals
Procedure: as §1, §2
Additionally, mice are weighed following 7 weeks of intraperitoneal injection of a non-acetylated procytotoxin or an acetylated procytoxin in a mouse model for prostate cancer. […] Cachexia is a profound and marked state of constitutional disorder, representing general ill health. It is sometimes associated with an emaciated condition, such as cancerous cachexia seen in cases of a malignant tumor. […]

In the case of “NH2-Gly-Phe-Ile-Ala-Thr-Leu-Cys-Thr-Lys-Val-Leu-Asp-Phe-Gly-Ile-Asp-Lys-Leu-Ile-Gln-Leu-Ile-Glu-Asp-Lys-CONH2 (H-GFIATLCTKVLDFGIDKLIQLIEDK-NH2; listed as Entamoeba histolytica) [Amoebapore Helix 3, parent cytolytic peptide from Entamoeba histolytica amoebapore, third helix]”, the “concentrations with cytolytic activity for nucleated cells” value [1] is listed as 10 to 100 µM.

With “non-acetylated γ-glutamate-masked amoebapore (peptide)” the % LDH Release (% LDH Release) [2] was 38.5.

“acetylated γ-glutamate-masked amoebapore (peptide)” gave a % LDH Release (% LDH Release) [2] of 29.9.

For `CC(=O)NC(CCC(=O)NC(CCC(=O)NCCCCC(N)C(N)=O)C(=O)O)C(=O)O` (stereo not drawn) [Acetylated procytotoxin], the “plasma PSA levels compared to control” value [3] was “lowered PSA levels to a greater extent”, the “% LDH Release” value [4] was 29.94% and the weight loss [5] was “experienced the least weight loss”.
